Results from PMC4017264 (Molecular Cell, 2014).

Columns and labels:
[1] = system: HOIP PUB domain (15N HOIP 1-184); assay: NMR binding (chemical shift perturbation) to 15N-labeled HOIP PUB domain; parameters: species or system Human; conditions: 15N BEST-TROSY NMR, 100 μM 15N HOIP 1-184, 20 mM phosphate pH 6.8, 50 mM NaCl, 2 mM DTT, 298K
Procedure: Standard triple-resonance experiments (HNCA, HN(CO)CA, HNCACB, CBCA(CO)NH, and HBHA(CO)NH) were acquired for the assignment of HOIP resonances. Constant time ^13C and ^13C-HSQC were acquired for the methyl and aromatic regions. In addition, (HB)CB(CGCD)HD and (HB)CB(CGCDCE)HE experiments coupled the Cβ of tyrosine resonances to the Hδ and Hε positions of the tyrosine ring, respectively.
Fluorescence polarization binding assays
10 µl of 100 nM FITC-Ahx peptides of either OTULIN (49-67) or p97 (797-806) were aliquoted into a 384-well low volume plate (Corning). Serial dilutions of HOIP PUB into FP assay buffer (20 mM Tris pH 7.4, 100 mM NaCl, 1 mM DTT) were prepared and 10 µl of this was aliquoted to FITC-Ahx peptide-containing wells. Fluorescence polarization was recorded on a PheraStar plate reader (BMG Labtech) using an optics module with $ex = 485 nm and $em = 520 nm. To derive binding constants (KD), polarization values were fitted to a one-site binding model using Graphpad Prism 5.
Nuclear Magnetic Resonance Spectroscopy
Uniformly labeled 15N or 13C, 15N samples of HOIP were prepared following growth in 2M9 medium supplemented with either 15N NH4Cl or 13C glucose.
Proteins were purified as described above and all samples were exchanged into NMR sample buffer (20 mM Na2HPO4/NaH2PO4 pH 6.8, 50 mM NaCl, 2 mM DTT). Lyophilized OTULIN and p97 PIM peptides were reconstituted in NMR sample buffer and the pH adjusted to pH 6.8 prior to use. NMR data were acquired at 298K on Bruker Avance III 600 MHz and Avance2+ 700
MHz spectrometers, equipped with cryogenic triple resonance TCI probes.
Standard triple resonance experiments (HNCA, HN(CO)CA, HNCACB, CBCA(CO)NH, HBHA(CO)NH) were acquired for the assignment of backbone
HOIP resonances. In addition, constant-time (ct) 13C and 13C-HSQC were acquired for the methyl and aromatic regions. For assignment of the H",H# resonances of HOIP tyrosines, (HB)CB(CGCD)HD and (HB)CB(CGCDCE)HE spectra were acquired, which coupled the C$ position of the tyrosine resonances to the H"/H# position of the tyrosine ring respectively. […]

HOIP 1-184 = assay: analytical size-exclusion chromatography binding; parameters: species or system Human; conditions: Superdex 75; 30 µM HOIP, 25 µM OTULIN, 20 mM Tris pH 7.4, 150 mM NaCl, 2 mM DTT, room temperature 15 min
Procedure: All mutations were generated by site directed mutagenesis using the QuikChange method with KOD HotStart DNA polymerase.
Protein expression and purification
HOIP PUB domain constructs were expressed in Rosetta2 (DE3) pLacI cells.
Cells were grown at 30 °C in 2 xTY medium supplemented with 30 µg/ml kanamycin and 34 µg/ml chloramphenicol to an OD600 of 0.8. The culture was cooled to 18 °C prior to overnight induction with 400 µM IPTG. Cells were resuspended and lysed by sonication in lysis buffer (20 mM Tris pH 7.4, 300 mM NaCl, 50 mM imidazole, 2 mM #-mercaptoethanol, lysozyme, DNaseI
(Sigma) and protease inhibitor cocktail (Roche)). HOIP was purified by immobilized metal affinity chromatography using a HisTrap column (GE Life Sciences). The His6-tag was cleaved by overnight incubation with 3C protease. The protein was buffer exchanged into 20 mM Tris pH 8.5, 2 mM DTT and purified further by anion exchange chromatography (ResourceQ, GE Life Sciences). Eluted HOIP was then subjected to size exclusion chromatography (HiLoad 16/60 Superdex 75, GE Life Sciences) in buffer containing 20 mM Tris pH 8.5, 150 mM NaCl, 2 mM DTT. The resultant fractions were judged to be 99% pure following SDS-PAGE analysis and flash frozen. OTULIN was expressed and purified according to (Keusekotten et al., […]
kind gift from Mark Allen (MRC LMB).
Analytical size exclusion chromatography binding studies […]

[2] = system: endogenous LUBAC (HOIP, HOIL-1, SHARPIN); assay: coimmunoprecipitation of endogenous LUBAC components with HA-tagged OTULIN; type: cell-based; conditions: HA-OTULIN variants in HEK293T cells, anti-HA IP, western blot
Procedure: Transfected HEK293T or U2OS and NOD2 cells were lysed in the presence of protease and phosphatase inhibitors. Clarified lysates were incubated overnight with anti-V5 and anti-HA-agarose resin. […]
(§1) siOTULIN: […], siMM […]
Immunoprecipitation of HOIP-V5 and HA-OTULIN
HEK293T or U2OS/NOD2 cells were transfected as indicated. The cells were lysed in IP buffer buffer (25 mM HEPES pH 7.4, 150 mM KCl, 2 mM MgCl2, 1 mM EGTA, 0.5% (v/v) Triton X-100) supplemented with 5 mM NEM (Sigma-Aldrich), cOmplete protease inhibitor cocktail (Roche) and PhosSTOP
(Roche). After 30 minutes on ice, the lysates were cleared by centrifugation and incubated overnight at 4 °C with anti-V5-agarose resin or anti-HA-agarose resin. The beads were washed four times in ice-cold IP buffer and the precipitated material was eluted with 0.2 M glycine, pH 2.5. […]

[3] = system: LUBAC-induced NFκB activity; assay: NFκB luciferase reporter assay (LUBAC-induced); type: cell-based; conditions: HEK293T cells; for inhibition of NFκB activity induced by HOIP PIM pocket mutants (N102D, Y82A) + HOIL-1 (in words): compared with wild-type HOIP
Procedure: Cells were cotransfected with the NFκB luciferase reporter construct pBIIXluc and the thymidine kinase-renilla luciferase construct in addition to other vectors used in the study. After 24 hr, cells were lysed in passive lysis buffer (Promega), and luciferase activity was recorded. Protein expression levels were determined by western blotting of cell lysates. […]
as §1
Luciferase reporter assays
Cells were co-transfected with the NF!B luciferase reporter construct pBIIXluc and the thymidine kinase-renilla luciferase construct to enable normalization of transfection efficiency. Cells were co-transfected with additional plasmids as indicated. After 24 h cells were lysed in 75 %L passive lysis buffer (Promega) and luciferase activity was measured on a FLUOstar Omega
Microplate Reader (BMG LABTECH GmbH, Offenburg, Germany) using the DualLuciferase ® Assay System (Promega) according to the manufacturer’s instructions. Protein expression levels were determined by SDS-PAGE and Western blotting of cell lysates as indicated. The data shown represents mean ± SEM. A two-tailed Student´s t -test was applied to evaluate statistical

[4] = system: HOIP (Met1-linked polyUb); assay: HOIP autoubiquitination, purification of endogenous Met1-polyUb conjugates (M1-SUB pulldown); type: cell-based; conditions: U2OS/NOD2 cells, ectopic OTULIN variants, basal, identical with L18-MDP or TNF, immunoblot
From the text: Antibodies and affinity resin
The following antibodies and reagents were used according to the manufacturers’ instructions: anti-HA-agarose resin (A2095), anti-V5-agarose resin (A7345) and rabbit polyclonal anti-HOIP/RNF31 (SAB2102031, Sigma-Aldrich), rat monoclonal anti-HA (#11867423991, Roche Diagnostics, Burgess Hill, UK), mouse monoclonal anti-ubiquitin (IMG-5021, Imgenex, San Diego, CA), rabbit polyclonal anti-SHARPIN (#14626-1-AP, ProteinTech, Chicago, IL), rabbit polyclonal anti-RBCK1/HOIL-1 (NBP1-88301, Novus Biologicals, Littleton, CO), mouse monoclonal anti-V5 (MCA1360, AbD Serotec, Kidlington, UK), mouse monoclonal anti-$-actin (MAB1501, Chemicon, Millipore, Billerica, MA), rabbit polyclonal anti-HOIL-1, rabbit polyclonal anti-HOIP/RNF31
(Sigma), mouse monoclonal anti-p97 (Thermo Scientific). The
Fam105B/OTULIN antibody was previously described (Keusekotten et al., 2013). […]
HEK293ET, RPE1 and U2OS cells were collected, washed with PBS and lysed on ice for 30 minutes in SEC cell extraction buffer (150 mM NaCl, 50 mM Tris-HCl pH 7.4, 1 mM MgCl2, 1 mM DTT, 0.3% NP40, protease and (Roche)). […] In total 3.1 mg protein extract was analyzed on a Superdex 200 10/300 GL column (GE Life Sciences). […]

[5] = system: HOIP (Met1-linked polyUb); conditions: overexpression of catalytically inactive OTULIN, ref Fiil et al., 2013, Keusekotten et al.; cited from earlier work
From the text: So far, the cellular consequences of OTULIN-LUBAC interaction are unclear. […] We wondered whether this depended on the formation of the OTULIN-HOIP complex or whether OTULIN would act in trans on the complex. When coexpressed with HOIL-1, HOIP PUB binding mutants autoubiquitinated in cells exp ...

Substance | binding / chemical shift perturbations of HOIP PUB domain (in words) [1] | binding to HOIP aa 1-184 (in words) (HOIP 1-184) | coimmunoprecipitation of endogenous LUBAC components (in words) [2] | inhibition of NFκB activity induced by wild-type LUBAC (in words) ([3]; HOIL-1 + wild-type HOIP) | inhibition of NFκB activity induced by HOIP PIM pocket mutants (N102D, Y82A) + HOIL-1 (in words) [3] | inhibition of NFκB activity induced by HOIP PIM pocket mutants (N102D, Y82A) + HOIL-1 (in words) ([3]; listed as wild-type OTULIN) | HOIP autoubiquitination with Met1-linked polyUb (in words) [4] | HOIP autoubiquitination with Met1-linked polyUb (in words), previously shown [5]
OTULIN: full-length OTULIN (aa 1–352), Met1-specific deubiquitinase | pattern of HOIP CSPs was identical | able to bind | coimmunoprecipitated all proteins from the endogenous LUBAC complex | abrogated NFκB activity | less effective in inhibiting activity | reduced the ability of OTULIN to antagonize LUBAC-induced NFκB activity | – | –
OTULIN C129A: catalytically inactive OTULIN C129A mutant (CA) | – | – | – | – | – | – | led to extensive HOIP ubiquitination | lead to the autoubiquitination of HOIP with Met1-linked polyUb chains
